# Assay results reported in US7329680B2, “Heterocycle substituted carboxylic acids” (The Institute for Pharmaceutical Discovery, LLC, priority 2003, dated 2008).
row,SMILES,melting point
1,"O=C(O)C(=O)Nc1cc(-c2ccc(-c3cccc4c3oc3ccccc34)cc2)cn(Cc2ccccc2)c1=O [Example 4, N-[1-Benzyl-5-(4-dibenzofuran-4-yl-phenyl)-2-oxo-1,2-dihydro-pyridin-3-yl]-oxalamic acid]",220 to 223 °C
2,"CCc1ccc(-c2sc(NC(=O)c3ccc(S(=O)(=O)N4CCCC4C(=O)O)cc3)nc2-c2ccc(Cl)cc2)cc1 (stereo not drawn) [Example 5, 1-{4-[4-(4-Chloro-phenyl)-5-(4-ethyl-phenyl)-thiazol-2-ylcarbamoyl]-benzenesulfonyl}-pyrrolidine-2-carboxylic acid]",289 to 292 °C
3,"O=C(O)[C@@H]1CSC(c2ccc(-c3ccc(-c4c(Cc5ccccc5)oc5ccccc45)cc3)cc2)N1 (mixture of isomers) [Example 38, (2RS,4R)-2-[4′-(2-Benzylbenzofuran-3-yl)biphen-4-yl]thiazolidine-4-carboxylic acid]",148 °C (dec.)
4,"O=C(O)CCNc1cc(-c2ccc(-c3cccc4c3oc3ccccc34)cc2)nc(Cc2ccccc2)n1 [Example 45, 3-[2-Benzyl-6-(4-dibenzofuran-4-yl-phenyl)-pyrimidin-4-ylamino]-propionic acid]",205 °C (dec.)
5,"O=C(O)CCNc1cc(-c2ccc(-c3cccc4c3oc3ccccc34)cc2)nc(-c2ccccc2)n1 [Example 46, 3-[2-phenyl-6-(4-dibenzofuran-4-yl-phenyl)-pyrimidin-4-ylamino]-propionic acid]",210 °C (dec.)
6,"O=C(O)[C@@H]1CSC(c2ccc(-c3ccc(-n4ccc5ccccc54)cc3)cc2)N1 (stereo in doubt) [Example 27, 2-(4′-Indol-1-yl-biphen-4-yl)thiazolidine-4-carboxylic acid]",135 to 137 °C (dec.)
